In PubChem BioAssay (NCI):
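Five concentrations, 48 hours, 96-well plates. Abbreviation: GI50, concentration required for 50% inhibition of growth. TGI: total growth inhibition.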

Experiments:
Assay in all cases: inhibition of tumour cell growth, NCI panel, 48 h
BT-549 breast = system: BT-549 breast
DU-145 prostate = system: DU-145 prostate
HOP-62 NSCLC = system: HOP-62 NSCLC
HOP-92 NSCLC = system: HOP-92 NSCLC
LOX IMVI melanoma = system: LOX IMVI melanoma
MDA-N = system: MDA-N
OVCAR-8 ovarian = system: OVCAR-8 ovarian
SN12C renal = system: SN12C renal
T-47D breast = system: T-47D breast
HCC-2998 colon = system: HCC-2998 colon
UACC-62 melanoma = system: UACC-62 melanoma

Row | Compound | TGI (BT-549 breast) | TGI (DU-145 prostate) | TGI (HOP-62 NSCLC) | TGI (HOP-92 NSCLC) | TGI (LOX IMVI melanoma) | TGI (MDA-N) | TGI (OVCAR-8 ovarian) | TGI (SN12C renal) | TGI (T-47D breast) | TGI (HCC-2998 colon) | TGI (UACC-62 melanoma) | GI50 (BT-549 breast) | GI50 (DU-145 prostate) | GI50 (HCC-2998 colon) | GI50 (HOP-92 NSCLC) | GI50 (LOX IMVI melanoma) | GI50 (SN12C renal) | GI50 (UACC-62 melanoma) | GI50 (T-47D breast)
1 | O=C(c1ccccc1)c1ccc2nc(-c3c(Cl)c(Cl)c(Cl)c(Cl)c3-c3nnc(-c4ccccc4)o3)[nH]c2c1 | > 100 µM | > 100 µM | > 100 µM | > 100 µM | > 100 µM | 15.5 µM | > 100 µM | 81.7 µM | > 100 µM |  |  |  |  |  |  |  |  |  | 
2 | CC(C(=O)OCc1ccccc1)N(Cc1ccccc1)Cc1ccccc1 (stereo not drawn) |  |  | > 100 µM | > 100 µM |  |  | > 100 µM | > 100 µM |  | > 100 µM | > 100 µM |  |  |  |  |  |  |  | 
3 | O=C(NNC(=S)Nc1ccccc1)c1nsc2ccccc12 |  |  | > 100 µM | 90.5 µM | > 100 µM |  | > 100 µM | > 100 µM |  | > 100 µM | 85.7 µM |  |  |  |  |  |  |  | 
4 | O=C(CCN1CCOCC1)/C(=C/c1ccccc1)c1ccccc1 |  |  | 45.8 µM | 13 µM | 7.42 µM |  | 4.1 µM | 14.5 µM |  | 28.3 µM | 7.52 µM |  |  |  |  |  |  |  | 
5 | O=c1c2cc(C(F)(F)F)ccc2sc2c(NCCCNCCO)nc3ccccc3c12 | 24.9 µM | 3.23 µM |  | 2.4 µM | 2.7 µM |  |  | 3.12 µM |  | 3.29 µM | 3.25 µM | 5.28 µM | 1.74 µM | 1.67 µM | 1.08 µM | 1.35 µM | 1.64 µM | 1.78 µM | 
6 | CN1/C(=C/C=C/C=C/C=C2C(=O)c3ccccc3C2=O)C(C)(C)c2ccccc21 | 81 µM | > 100 µM | > 100 µM | 58 µM | > 100 µM | > 100 µM | > 100 µM | > 100 µM | > 100 µM |  | 58.3 µM |  |  |  |  |  |  |  | 
7 | COC(=O)C1CC2(C)C=CC1N(C(=O)OCc1ccccc1)C2 (stereo not drawn) | > 100 µM | > 100 µM | > 100 µM |  | > 100 µM |  | > 100 µM | > 100 µM | > 100 µM | > 100 µM | > 100 µM |  |  |  |  |  |  |  | 
8 | C#CC(O)(c1nc2ccccc2s1)c1nc2ccccc2s1 | 57.3 µM | > 100 µM | 85.1 µM | 38.2 µM | 35.7 µM | 57.4 µM | 51.5 µM | 42.6 µM | 88.9 µM |  | 26.1 µM |  |  |  |  |  |  |  | 
9 | COc1ccccc1OCC(COC(=O)Nc1ccccc1)OC(=O)Nc1ccccc1 (stereo not drawn) |  |  | > 100 µM | 28.7 µM | > 100 µM |  | > 100 µM | > 100 µM |  | > 100 µM | > 100 µM |  |  |  |  |  |  |  | 
10 | CCc1cccc2c3c([nH]c12)-c1ccccc1NC(=O)C3 | > 100 µM | > 100 µM | > 100 µM | > 100 µM | > 100 µM |  | > 100 µM | > 100 µM | > 100 µM |  | > 100 µM |  |  |  |  |  |  |  | 
11 | Cc1c(CNc2ccc(C(=O)NC(CCCNC(=O)c3ccccc3C(=O)O)C(=O)O)cc2)cnc2nc(N)nc(N)c12 (stereo not drawn) | 6.62 µM | > 100 µM |  |  |  |  |  | > 100 µM |  |  |  |  |  | 0.167 µM | > 100 µM |  |  |  | > 100 µM
12 | CCOC(=O)c1ccc(Nc2nc3ccccc3nc2-c2cccs2)cc1 |  | > 100 µM | > 100 µM |  | 74.1 µM | > 100 µM | > 100 µM | 99.3 µM | 56.2 µM | 77.7 µM | 33.6 µM |  |  |  |  |  |  |  | 
13 | CCN1C/C(=C\c2ccc(Cl)cc2)c2nc(N)c(C#N)c(-c3ccc(Cl)cc3)c2C1 | > 100 µM | > 100 µM | > 100 µM |  | > 100 µM | > 100 µM | > 100 µM |  |  | > 100 µM | > 100 µM |  |  |  |  |  |  |  | 
14 | C(/C=N/NC1=NCCCCN1)=N\NC1=NCCCCN1 | > 100 µM |  | > 100 µM | > 100 µM | > 100 µM | > 100 µM | > 100 µM | > 100 µM | > 100 µM | > 100 µM | > 100 µM |  |  |  |  |  |  |  | 
15 | Cc1ccc(S(=O)(=O)NC(=O)NC(Cc2ccc(O)cc2)C(=O)O)cc1 (stereo not drawn) | > 100 µM | > 100 µM | > 100 µM | > 100 µM | > 100 µM | > 100 µM | > 100 µM | > 100 µM | > 100 µM |  |  |  |  |  |  |  |  |  | 
16 | Cc1ccc(S(=O)(=O)NC(CCC(=O)NNc2ccccc2)C(=O)NNc2ccccc2)cc1 (stereo not drawn) | > 100 µM |  | > 100 µM | > 100 µM | > 100 µM | > 100 µM | > 100 µM |  | > 100 µM |  | > 100 µM |  |  |  |  |  |  |  | 
17 | CC1=NN(c2cccc(Cl)c2)C2(C1=Cc1ccc(O)cc1)C(Cl)C(=O)N2c1nc2ccccc2s1 (stereo not drawn) |  | 67.9 µM | 51.8 µM | 37.5 µM | 47.5 µM | 64.8 µM | 87.8 µM |  | 97.8 µM | 35 µM |  |  |  |  |  |  |  |  | 
18 | CC(C)(C)OC(=O)N/C(C=O)=C\C1CCCCC1 | 70.6 µM | 95.9 µM | 58.9 µM |  | 29.9 µM | 50.3 µM | 31.7 µM | 42.1 µM | 84.5 µM | 37.3 µM | 30.7 µM |  |  |  |  |  |  |  | 
19 | FC(F)(F)c1cc(N(C2c3ccccc3C=Cc3ccccc32)P(Cl)Cl)cc(C(F)(F)F)c1 | 23 µM | 40.3 µM | 37.3 µM | 30.4 µM | 36.1 µM | 76.9 µM | 35.7 µM | 32.7 µM | 56.4 µM |  |  |  |  |  |  |  |  |  | 
20 | C1=NCCNCCNCCN=Cc2ccc(cc2)OCc2cccc(n2)COc2ccc1cc2 | > 100 µM | > 100 µM | > 100 µM | > 100 µM |  | > 100 µM | > 100 µM | > 100 µM | > 100 µM |  | > 100 µM |  |  |  |  |  |  |  | 
21 | Cn1nc2ccc(Nc3cc(=O)[nH]c4ccc5nn(C)nc5c34)cc2n1 | > 100 µM | > 100 µM | > 100 µM | > 100 µM |  |  | > 100 µM | > 100 µM | > 100 µM | > 100 µM | > 100 µM |  |  |  |  |  |  |  | 
